Reference: patent publication US20240156852A1, “CARBON NANOPARTICLE COMPOSITIONS AND METHODS FOR DELIVERING THERAPEUTICS TO SPECIFIC TARGET SITES” (SINON NANO SCIENCES INC., priority 2021, published 2024)

Details: male, Wistar, rat, in vivo, po
Experimental: Wistar rats (male, 200-220 g) were obtained from the CPCSEA registered animal vendor. Animals were maintained at temperature of 23±2° C., relative humidity of 30% to 70%, and a 12 h dark-light cycle. All of the animals had free access to water and rodent chow at all times, and all of the experimental animals were fed under the above conditions throughout the acclimatization period. Wistar rats (n=1, Male) were randomly taken for each of the two groups. […] All the rats were fasted for 12 hr before administration. The blood collection was done from retro-orbital plexus using an anticoagulant-coated capillary tube at 0 (pre-dose), 0.25, 0.5, 1, 2, 4, 6, 8, and 24 hr respectively following oral administration from both the rats (Group 1 and 2). At each time point, blood sample (125 μL) was collected in EDTA tubes and tubes were immediately centrifuged at 3000 rpm for 10 min to obtain the plasma. The separated plasma was frozen at −20° C. before analysis.
The biological samples were thawed at room temperature. After vortexing for 30 seconds, 100 μL of sample was taken into 1.5 mL eppendorf tubes, 600 μL of ice-cold acetonitrile was added to denature the proteins. The tubes were vortexed for 2 minutes followed by centrifugation at 5000 rpm for 10 minutes. […]

plasma concentrations (below quantitation limits): < 31.2 ng/mL
Structure (SMILES): CC(=O)O[C@H]1C(=O)[C@@]2(C)[C@H]([C@H](OC(=O)c3ccccc3)[C@]3(O)C[C@H](OC(=O)[C@H](O)[C@@H](NC(=O)c4ccccc4)c4ccccc4)C(C)=C1C3(C)C)[C@]1(OC(C)=O)CO[C@@H]1C[C@@H]2O [Paclitaxel]
